Measured values taken from patent publication US20060211764A1, “Cell activator, process for producing cell activator and apparatus therefor” (priority 2002, published 2006).

Columns and labels:
endometriosis = test: Administration to human patients, endometriosis; format: in vivo
uterine/ovarian cancer = test: Administration to a human patient, uterine/ovarian cancer with ileus; format: in vivo
Method: Person, two years ago, the uterus was extirpated, the ovary and fallopian duct were resected and chemotherapy was performed 3 times. During hospitalization, an ileus tube was inserted due to an ileus. Then intestinal liquid and gas were emitted. A central nutrition tube was inserted into the right subclavian vein because oral ingestion was impossible. An artificial anus and urinary duct tube were attached due to a tumor in the left abdomen. […] Cancerous pain ameliorated and the ingestion of solid food from 3/10- 5/10- 7/10-whole porridge was enabled. Discharged from the hospital 3 months later.

[1] = Blood screening and biochemical examination of blood in bovines given CPL; format: in vivo, bovine
[2] = test system: bone-thinning disease osteoporosis; test: Administration to a human patient, osteoporosis; format: in vivo; conditions: person; 6 g/day for 180 days
infertility = test: Administration to human patients, infertility; format: in vivo
leukemia = test: Administration to human patients, leukemia; format: in vivo; conditions: person
ovarian cyst = test: Administration to human patients, ovarian cyst (ultrasonography, MRI); format: in vivo
From the text: A case of a patient whose uterus was extirpated due to uterine myoma. This patient has had two celitomies with a caesarean section. They received an examination for cancer because abnormal bleeding has continued recently. […] Moreover, a prominent part was found in part of the cyst and it was suspected to be malign (Photograph (1)).
The size of the ovarian cyst measured with ultrasonography carried out a few days later was reduced down to approximately 4 cm (Photograph (2)).
A case of a patient whose wedding day was drawing close. […] In consideration that hormone abnormalities were the cause, follow-ups were made for 2-3 weeks. Carrying out a subsequent examination, the ovary was further swollen to 6.5 cm (Photograph 5).

laryngeal cancer = test: Administration to a human patient, laryngeal cancer; format: in vivo; conditions: person; 20 g/day for 150 days
pneumonia = test: Administration to bovine, pneumonia; format: in vivo; conditions: 20 g/day for 1-2 days
subclavian lymphoma = test: Administration to a human patient, subclavian lymphoma; format: in vivo; conditions: female, 50 g/day for 90 days
colon cancer = test: Administration to a human patient, colon cancer; format: in vivo; conditions: person
liver cancer = test: Administration to human patients, liver cancer; format: in vivo; conditions: male
lipid metabolism system = test: Effects of CPL ingestion on lipid metabolism; format: in vivo

Substance: Cyclic Poly-lactate [CPL]
- CA125 of tumor marker (endometriosis; endometriosis patients, in the majority of the patients): improves
- symptoms of menorrhagia (endometriosis; person, 10 g/day orally): ameliorated
- menstrual pain (endometriosis; person, 10 g/day orally, next menstruation): ameliorated
- excretion of gas, defecation and amount of urine (uterine/ovarian cancer; person with ileus, 4-6 g/day): increased
- ileus symptoms (uterine/ovarian cancer; person, 7 days later): negative
- recurrence of ileus symptoms (uterine/ovarian cancer; person, discharged 3 months later): No recurrent ileus symptoms
- cancerous pain (uterine/ovarian cancer; person, oral ingestion 15-20 g/day): ameliorated
- WBC ([1]; bovine 901 (Screening), 3 May, treatment from 30 April, pretreatment 97): 96 ×10^2
- GOT ([1]; bovine 901 (Screening), 3 May, treatment from 30 April, pretreatment 134): 128 U/I
- TCHO ([1]; bovine 901 (Screening), 3 May, treatment from 30 April, pretreatment 255): 266 mg/dL
- CPK ([1]; bovine 901 (Screening), 3 May, treatment from 30 April, pretreatment 819): 82 U/I
- WBC ([1]; bovine 901 (Screening), 7 May, pretreatment 97): 94 ×10^2
- GOT ([1]; bovine 901 (Screening), 7 May, pretreatment 134): 116 U/I
- TCHO ([1]; bovine 901 (Screening), 7 May, pretreatment 255): 245 mg/dL
- CPK ([1]; bovine 901 (Screening), 7 May, pretreatment 819): 97 U/I
- WBC ([1]; bovine 901 (Screening), 10 May, completion date of treatment, pretreatment 97): 71 ×10^2
- GOT ([1]; bovine 901 (Screening), 10 May, completion date of treatment, pretreatment 134): 115 U/I
- TCHO ([1]; bovine 901 (Screening), 10 May, completion date of treatment, pretreatment 255): 286 mg/dL
- CPK ([1]; bovine 901 (Screening), 10 May, completion date of treatment, pretreatment 819): 113 U/I
- WBC ([1]; bovine 923 (Garget), 3 May, treatment from 30 April, Spectrazol 2-4 May, pretreatment 101): 111 ×10^2
- GOT ([1]; bovine 923 (Garget), 3 May, treatment from 30 April, Spectrazol 2-4 May, pretreatment 123): 107 U/I
- TCHO ([1]; bovine 923 (Garget), 3 May, treatment from 30 April, Spectrazol 2-4 May, pretreatment 247): 255 mg/dL
- CPK ([1]; bovine 923 (Garget), 3 May, treatment from 30 April, Spectrazol 2-4 May, pretreatment 563): 203 U/I
- WBC ([1]; bovine 923 (Garget), 7 May, pretreatment 101): 97 ×10^2
- GOT ([1]; bovine 923 (Garget), 7 May, pretreatment 123): 81 U/I
- TCHO ([1]; bovine 923 (Garget), 7 May, pretreatment 247): 208 mg/dL
- CPK ([1]; bovine 923 (Garget), 7 May, pretreatment 563): 133 U/I
- WBC ([1]; bovine 923 (Garget), 10 May, completion date of treatment, pretreatment 101): 110 ×10^2
- GOT ([1]; bovine 923 (Garget), 10 May, completion date of treatment, pretreatment 123): 107 U/I
- TCHO ([1]; bovine 923 (Garget), 10 May, completion date of treatment, pretreatment 247): 259 mg/dL
- CPK ([1]; bovine 923 (Garget), 10 May, completion date of treatment, pretreatment 563): 121 U/I
- other blood responses such as WBC, GOT, and TCHO ([1]; bovines given CPL): no specific changes
- CPK (muscle enzyme) mean level ([1]; group of bovines with markedly high levels of CPK): extremely low
- bone density [2]: increased
- number of patients who conceived (infertility; 10 patients with infertility, 6-9 g/day): 8
- lower abdominal pain (infertility; person, endometriosis, ovarian cyst, 6 g/day, within the next 2-3 days): ameliorated
- conception (infertility; person, after endometriosis symptoms ameliorated): naturally conceived
- outcome of leukemia (leukemia; 15-20 g/day for 170 days): cured
- outcome of leukemia (leukemia; 15 g/day for 5 months): cured
- outcome of leukemia (leukemia; 15 g/day for 220 days): cured
- recurrence of leukemia (leukemia; for 2 years onwards): No recurrence
- ovarian cyst at preoperative MRI examination (ovarian cyst; patient, 30-40 g/day until operation): disappeared
- size of ovarian cyst by ultrasonography (ovarian cyst; patient, 30-40 g/day, a few days later, initially approximately 5 cm): approximately 4 cm
- ovarian cyst after further administration (ovarian cyst; person, 2 weeks after further administration): disappeared completely
- size of ovarian cyst by ultrasonography (ovarian cyst; person, CPL for 2 weeks, 6.5 cm before): below 4 cm
- outcome of laryngeal cancer (laryngeal cancer): cured
- symptom of pneumonia (pneumonia): improved
- CEA (subclavian lymphoma; decreased from 20.4): 5.4
- CA 15 (subclavian lymphoma; decreased from 70): 20.3
- colon tumors of 2 cm in size (Stage 2-3) (colon cancer; 20 g/day for 150 days, in 2 weeks): disappeared
- examination for colon cancer (colon cancer; examination 5 months later): No abnormalities were found
- outcome of liver cancer (liver cancer; 20 g/day for 150 days): cured
- outcome of liver cancer originated from liver cirrhosis (liver cancer; 20 g/day for 210 days): cured
- fatty acid composition of triglyceride (lipid metabolism system): changes
